The supplement of paper PMC11061612

Assays:
Capivasertib = compound: C1CN(CCC1(C(=O)N[C@@H](CCO)C2=CC=C(C=C2)Cl)N)C3=NC=NC4=C3C=CN4 [Capivasertib]; conditions: max 10 µM
Outline: (§1)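 Following 24 hours at 37°C and 5% CO2, cancer cell lines in 1536-well plates with 7.5 μl DMEM/F12 or RPMI and 10% FBS were dosed for 72 hours, final DMSO typically being 0.2%. CellTiter-Glo 2.0 luminescence, scaled between blank-well and DMSO-well means, gave the viability readout. Dose responses were fitted to a two-parameter logistic curve with a non-linear mixed effects model, and the single-agent IC50 was derived from this fit.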

AZD1775 = compound: C=CCn1c(=O)c2cnc(Nc3ccc(N4CCN(C)CC4)cc3)nc2n1-c1cccc(C(C)(C)O)n1 [AZD1775]; conditions: max 3 µM
Outline: as §1

Trametinib = compound: CC(=O)Nc1cccc(-n2c(=O)n(C3CC3)c(=O)c3c(Nc4ccc(I)cc4F)n(C)c(=O)c(C)c32)c1 [Trametinib]; conditions: max 1 µM
Outline: as §1

Palbociclib = compound: CC(=O)c1c(C)c2cnc(Nc3ccc(N4CCNCC4)cn3)nc2n(C2CCCC2)c1=O [Palbociclib]; conditions: max 10 µM
Outline: as §1

AZD1390 = compound: CC(C)n1c(=O)n(C)c2cnc3cc(F)c(-c4ccc(OCCCN5CCCCC5)nc4)cc3c21 [AZD1390]; conditions: max 0.3 µM
Outline: as §1

Venetoclax = compound: CC1(C)CCC(CN2CCN(c3ccc(C(=O)NS(=O)(=O)c4ccc(NCC5CCOCC5)c([N+](=O)[O-])c4)c(Oc4cnc5[nH]ccc5c4)c3)CC2)=C(c2ccc(Cl)cc2)C1 [Venetoclax]; conditions: max 1 µM
Outline: as §1

Dasatinib = compound: CC1=C(C(=CC=C1)Cl)NC(=O)C2=CN=C(S2)NC3=CC(=NC(=N3)C)N4CCN(CC4)CCO [Dasatinib]; conditions: max 2 µM
Outline: as §1

SG3199 = compound: CC1=CN2[C@@H](C1)C=NC3=CC(=C(C=C3C2=O)OC)OCCCCCOC4=C(C=C5C(=C4)N=C[C@@H]6CC(=CN6C5=O)C)OC [SG3199]; conditions: max 0.001 µM
Outline: as §1

AZD2811 = compound: CCN(CCO)CCCOc1ccc2c(Nc3cc(CC(=O)Nc4cccc(F)c4)[nH]n3)ncnc2c1 [AZD2811]; conditions: max 1 µM
Outline: as §1

SN-38 = compound: CCc1c2c(nc3ccc(O)cc13)-c1cc3c(c(=O)n1C2)COC(=O)[C@]3(O)CC [SN-38]; conditions: max 0.3 µM
Outline: as §1

AZD0156 = compound: CN(C)CCCOc1ccc(-c2ccc3ncc4c(c3c2)n(C2CCOCC2)c(=O)n4C)cn1 [AZD0156]; conditions: max 3 µM
Outline: as §1

AZD4320 = compound: CN(CC[C@H](CSC1=CC=CC=C1)NC2=C(C=C(C=C2)S(=O)(=O)NC(=O)C3=CC=C(C=C3)N4CCC(CC4)[C@H](C5=CC=CC=C5C6=CC=C(C=C6)Cl)O)S(=O)(=O)C(F)(F)F)CCO [AZD4320]; conditions: max 1 µM
Outline: as §1

Alisertib = compound: COc1cc(Nc2ncc3c(n2)-c2ccc(Cl)cc2C(c2c(F)cccc2OC)=NC3)ccc1C(=O)O [Alisertib]; conditions: max 10 µM
Outline: as §1

Gefitinib = compound: COc1cc2ncnc(Nc3ccc(F)c(Cl)c3)c2cc1OCCCN1CCOCC1 [Gefitinib]; conditions: max 10 µM
Outline: as §1

Prexasertib = compound: COc1cccc(OCCCN)c1-c1cc(Nc2cnc(C#N)cn2)n[nH]1 [Prexasertib]; conditions: max 1 µM
Outline: as §1

Doxorubicin = compound: COc1cccc2c1C(=O)c1c(O)c3c(c(O)c1C2=O)C[C@@](O)(C(=O)CO)C[C@@H]3O[C@H]1C[C@H](N)[C@H](O)[C@H](C)O1 [Doxorubicin]; conditions: max 1 µM
Outline: as §1

AZD5153 = compound: COc1nnc2ccc(N3CCC(c4ccc(OCCN5CCN(C)C(=O)[C@H]5C)cc4)CC3)nn12 [AZD5153]; conditions: max 1 µM
Outline: as §1

Lapatinib = compound: CS(=O)(=O)CCNCc1ccc(-c2ccc3ncnc(Nc4ccc(OCc5cccc(F)c5)c(Cl)c4)c3c2)o1 [Lapatinib]; conditions: max 10 µM
Outline: as §1

AZD8186 = compound: C[C@@H](Nc1cc(F)cc(F)c1)c1cc(C(=O)N(C)C)cc2c(=O)cc(N3CCOCC3)oc12 [AZD8186]; conditions: max 3 µM
Outline: as §1

Crizotinib = compound: C[C@@H](Oc1cc(-c2cnn(C3CCNCC3)c2)cnc1N)c1c(Cl)ccc(F)c1Cl [Crizotinib]; conditions: max 10 µM
Outline: as §1

Savolitinib = compound: C[C@@H](c1ccc2nccn2c1)n1nnc2ncc(-c3cnn(C)c3)nc21 [Savolitinib]; conditions: max 1 µM
Outline: as §1

AZD6738 = compound: C[C@@H]1COCCN1C2=NC(=NC(=C2)C3(CC3)[S@](=N)(=O)C)C4=C5C=CNC5=NC=C4 [AZD6738]; conditions: max 10 µM
Outline: as §1

AZD5991 = compound: Cc1c2c(nn1C)CSCc1cc(n(C)n1)CSc1cc(c3ccccc3c1)OCCCc1c(C(=O)O)n(C)c3c-2c(Cl)ccc13 [AZD5991]; conditions: max 1 µM
Outline: as §1

AZD7648 = compound: Cc1cc2ncnn2cc1Nc1ncc2c(n1)n(C1CCOCC1)c(=O)n2C [AZD7648]; conditions: max 10 µM
Outline: as §1

Taselisib = compound: Cc1nc(-c2cn3c(n2)-c2ccc(-c4cnn(C(C)(C)C(N)=O)c4)cc2OCC3)n(C(C)C)n1 [Taselisib]; conditions: max 10 µM
Outline: as §1

Selumetinib = compound: Cn1cnc2c(F)c(Nc3ccc(Br)cc3Cl)c(C(=O)NOCCO)cc21 [Selumetinib]; conditions: max 10 µM
Outline: as §1

Olaparib = compound: O=C(c1cc(Cc2n[nH]c(=O)c3ccccc23)ccc1F)N1CCN(C(=O)C2CC2)CC1 [Olaparib]; conditions: max 10 µM
Outline: as §1

MK-2206 = compound: NC1(c2ccc(-c3nc4ccn5c(=O)[nH]nc5c4cc3-c3ccccc3)cc2)CCC1 [MK-2206]; conditions: max 10 µM
Outline: as §1

Row | Cell Line | IC50, cell viability 72 h (Capivasertib) [µM] | IC50, cell viability 72 h (AZD1775) [µM] | IC50, cell viability 72 h (Trametinib) [µM] | IC50, cell viability 72 h (Palbociclib) [µM] | IC50, cell viability 72 h (AZD1390) [µM] | IC50, cell viability 72 h (Venetoclax) [µM] | IC50, cell viability 72 h (Dasatinib) [µM] | IC50, cell viability 72 h (SG3199) [µM] | IC50, cell viability 72 h (AZD2811) [µM] | IC50, cell viability 72 h (SN-38) [µM] | IC50, cell viability 72 h (AZD0156) [µM] | IC50, cell viability 72 h (AZD4320) [µM] | IC50, cell viability 72 h (Alisertib) [µM] | IC50, cell viability 72 h (Gefitinib) [µM] | IC50, cell viability 72 h (Prexasertib) [µM] | IC50, cell viability 72 h (Doxorubicin) [µM] | IC50, cell viability 72 h (AZD5153) [µM] | IC50, cell viability 72 h (Lapatinib) [µM] | IC50, cell viability 72 h (AZD8186) [µM] | IC50, cell viability 72 h (Crizotinib) [µM] | IC50, cell viability 72 h (Savolitinib) [µM] | IC50, cell viability 72 h (AZD6738) [µM] | IC50, cell viability 72 h (AZD5991) [µM] | IC50, cell viability 72 h (AZD7648) [µM] | IC50, cell viability 72 h (Taselisib) [µM] | IC50, cell viability 72 h (Selumetinib) [µM] | IC50, cell viability 72 h (Olaparib) [µM] | IC50, cell viability 72 h (MK-2206) [µM]
1 | SAT (Head and Neck Carcinoma) | > 10 | 2.69 | 0.0772 | > 10 | > 0.3 | > 1 | 0.204 | > 0.001 | > 1 | > 0.3 | > 3 | > 1 | 2.92 | 2.61 | 0.826 | > 1 | 0.155 | 2.02 | > 3 | > 10 | > 1 | > 10 | > 1 | > 10 | 0.16 | 4.69 | > 10 | 
2 | SNU-407 (Colorectal Carcinoma) | 6.34 | 1.57 | 0.0743 | > 10 | > 0.3 | > 1 | > 2 | > 0.001 | > 1 | 0.16 | > 3 | > 1 | 1.15 | > 10 | 0.458 | > 1 | 0.0629 | > 10 | > 3 | > 10 | > 1 | 4.12 | > 1 | > 10 | 0.365 | 2.56 | > 10 | > 10
3 | SNU-C2B (Colorectal Carcinoma) | > 10 | 1.12 | > 1 | > 10 | > 0.3 | > 1 | > 2 | > 0.001 | > 1 | > 0.3 | > 3 | > 1 | > 10 | > 10 | 0.133 | > 1 | 0.788 | > 10 | > 3 | > 10 | > 1 | 7.63 | > 1 | > 10 | 8.21 | > 10 | > 10 | 
4 | SUP-M2 (T-Cell Non-Hodgkin's Lymphoma) | > 10 | 0.316 | > 1 | 6.52 | > 0.3 | > 1 | > 2 | > 0.001 | 0.0226 | 0.00156 | > 3 | 0.805 | 0.0577 | > 10 | 0.0165 | 0.0547 | 0.0304 | 6.55 | > 3 | 0.475 | > 1 | 1.01 | 0.117 | > 10 | > 10 | > 10 | 5.4 | 
5 | SiHa (Cervical Carcinoma) | > 10 | > 3 | > 1 | > 10 | > 0.3 | > 1 | > 2 | > 0.001 | > 1 | > 0.3 | > 3 | > 1 | > 10 | > 10 | > 1 | > 1 | 0.444 | > 10 | > 3 | > 10 | > 1 | > 10 | > 1 | > 10 | > 10 | > 10 | > 10 | 
6 | T47D (Breast Carcinoma) | > 10 | > 3 | > 1 | > 10 | > 0.3 | > 1 | > 2 | > 0.001 | > 1 | 0.104 | > 3 | > 1 | > 10 | > 10 | > 1 | > 1 | > 1 | > 10 | > 3 | > 10 | > 1 | > 10 | > 1 | > 10 | 0.776 | > 10 | > 10 | 
7 | UACC-257 (Melanoma) | > 10 | > 3 | 0.0412 | > 10 | > 0.3 | > 1 | > 2 | > 0.001 | > 1 | > 0.3 | > 3 | > 1 | > 10 | > 10 | > 1 | > 1 | > 1 | > 10 | > 3 | > 10 | > 1 | > 10 | > 1 | > 10 | > 10 | 2.33 | > 10 | 
8 | WM35 (Melanoma) | > 10 | > 3 | 0.0166 | > 10 | > 0.3 | > 1 | > 2 | > 0.001 | > 1 | 0.21 | > 3 | > 1 | > 10 | > 10 | 0.134 | > 1 | > 1 | > 10 | > 3 | > 10 | > 1 | > 10 | > 1 | > 10 | > 10 | 1.09 | > 10 | 
